Test results as given in patent US20110111014A1, “METHODS AND COMPOSITIONS FOR TREATMENT OF NEUROLOGICAL DISORDERS” (Parkinson's Institute, priority 2007, published 2011).
Where a name gives a salt, the structure may show the parent alone.

What was measured:
α-synuclein [1] = target: T1, α-synuclein (Homo sapiens, UniProt P37840); assay: Electron microscopy of fibrils (secondary assay); type: biochemical; conditions: figure legends
T1 construct: made in house; host or cells: E. coli BL21(DE3), plasmid pRK172/α-synuclein WT

α-synuclein [2] = target: T1, α-synuclein; assay: Centrifugation to separate soluble and insoluble protein, SDS-PAGE; type: biochemical; conditions: for protein soluble after incubation, SDS PAGE of supernatant vs. total mixture: figure legends
α-synuclein [3] = target: T1, α-synuclein; assay: Aggregation inhibition Thioflavin T assay (primary assay); type: biochemical; conditions: for Thioflavin T signal / fibril formation by Thioflavin T fluorescence: compared with control samples (FIGS. 1-13); for lagtime for fibrillation: NINDS Collection 2 Library
α-synuclein [4] = target: T1, α-synuclein; assay: Disaggregation Thioflavin T assay; type: biochemical; conditions: polyphenol inhibitors
α-synuclein [5] = target: T1, α-synuclein; assay: SEC HPLC, oligomer formation; type: biochemical; conditions: none with control
[6] = in vivo; cited from earlier work
[7] = cited from earlier work
α-synuclein [8] = target: T1, α-synuclein; assay: Atomic force microscopy of fibrils; type: biochemical; conditions: 45 hours post treatment, compared to control
Description: Atomic force microscopy (AFM): AFM images were collected with a PicoScan LE system (Molecular Imaging, Phoenix, AZ) equipped with Acoustic AC mode (Tapping mode) for ex-situ experiment. Triangular cantilevers with 160 kHz resonance frequency and 2 N/m spring constant, a V-shaped cantilever NSC16/AIBS (MikroMasch), were used in tapping mode imaging. The imaging was carried out at a scan rate of 1 line/s with 512 data points per line, at a drive current of 10±4 Å. Aliquots of 10 ul of sample were placed on a freshly cleaved mica substrate. After incubation for at least 60 min, the substrate was rinsed with water several times to remove salt and loosely bound protein and dried with high-purity nitrogen. Kinetics of α-synuclein fibrillation can be visualized with the use of this technique, as exemplified in FIG. 46.

CCCCCCCC/C=C/CCCCCCCCOP(=O)([O-])OCC[N+](C)(C)C [elaidyphosphocholine (antineoplastic), elaidylphosphocholine]
fibril formation by EM (α-synuclein [1]): negligible fibril formation | protein soluble after incubation, SDS PAGE of supernatant vs. total mixture (α-synuclein [2]): most protein still soluble | Thioflavin T signal / fibril formation by Thioflavin T fluorescence (α-synuclein [3]): negligible fibril formation

CC(C)NCC(O)c1ccc(O)c(O)c1 (stereo not shown) [isoproterenol]
fibril formation by EM (α-synuclein [1]): Few fibrils | protein in the supernatant after centrifugation (α-synuclein [2]; FIG. 1B, control samples <15%): > 90% | Thioflavin T signal / fibril formation by Thioflavin T fluorescence (α-synuclein [3]): very low

CC(CCc1ccc(O)cc1)NCCc1ccc(O)c(O)c1 (stereo not shown) [dobutamine]
fibril formation by EM (α-synuclein [1]): negligible fibril formation | protein soluble after incubation, SDS PAGE of supernatant vs. total mixture (α-synuclein [2]): most protein still soluble | Thioflavin T signal / fibril formation by Thioflavin T fluorescence (α-synuclein [3]): negligible fibril formation

O=c1cc(-c2ccc(O)c(O)c2)oc2ccccc12 [3′,4′-dihydroxyflavone]
disaggregation of α-synuclein aggregates (α-synuclein [4]): best disaggregators

Cc1c(OCC(F)(F)F)ccnc1C[S+]([O-])c1nc2ccccc2[nH]1 (stereo not shown) [lansoprazole]
lagtime for fibrillation (α-synuclein [3]): Significant increases in

N.N.[Cl][Pt][Cl] [cisplatin]
fibril formation by EM (α-synuclein [1]): negligible fibril formation | Thioflavin T signal / fibril formation by Thioflavin T fluorescence (α-synuclein [3]): negligible fibril formation

CN1CCc2cccc3c2[C@H]1Cc1ccc(O)c(O)c1-3 [apomorphine, 6αβ-Aporphine-10,11-diol hydrochloride hemihydrate]
oligomer formation by SEC HPLC (α-synuclein [5]): oligomer formation | fibril formation by EM (α-synuclein [1]): negligible fibril formation | protein soluble after incubation, SDS PAGE of supernatant vs. total mixture (α-synuclein [2]): most protein still soluble | Thioflavin T signal / fibril formation by Thioflavin T fluorescence (α-synuclein [3]): very low

O=c1c(O)c(-c2ccc(O)c(O)c2)oc2cc(O)ccc12 [fisetin]
disaggregation of α-synuclein aggregates (α-synuclein [4]): best disaggregators

chlorophyllide Cu complex Na salt
fibril formation by EM (α-synuclein [1]): negligible fibril formation | protein soluble after incubation, SDS PAGE of supernatant vs. total mixture (α-synuclein [2]): most protein still soluble | Thioflavin T signal / fibril formation by Thioflavin T fluorescence (α-synuclein [3]): negligible fibril formation

O=C1c2ccc(O)c(O)c2C(=O)c2c(O)ccc(O)c21 [quinalizarin]
fibril formation by EM (α-synuclein [1]): negligible fibril formation | protein soluble after incubation, SDS PAGE of supernatant vs. total mixture (α-synuclein [2]): most protein still soluble | Thioflavin T signal / fibril formation by Thioflavin T fluorescence (α-synuclein [3]): negligible fibril formation

CCCCOc1ccc(OCCCN2CCOCC2)cc1 [pramoxine hydrochloride]
lagtime for fibrillation (α-synuclein [3]): Significant increases in

O=c1cc(-c2cc(O)c(O)c(O)c2)oc2cc(O)ccc12 [7,3′,4′,5′-tetrahydroxyflavone]
disaggregation of α-synuclein aggregates (α-synuclein [4]): best disaggregators

O=c1c(O)c(-c2ccc(O)c(O)c2)oc2c(O)c(O)cc(O)c12 [3,5,7,8,3′,4′-hexahydroxyflavone]
disaggregation of α-synuclein aggregates (α-synuclein [4]): best disaggregators

pyrogallin
fibril formation by EM (α-synuclein [1]): negligible fibril formation | protein soluble after incubation, SDS PAGE of supernatant vs. total mixture (α-synuclein [2]): most protein still soluble | Thioflavin T signal / fibril formation by Thioflavin T fluorescence (α-synuclein [3]): negligible fibril formation

O=c1c(-c2ccc(O)c(O)c2)coc2cc(O)ccc12 [7,3′,4′-trihydroxyisoflavone]
disaggregation of α-synuclein aggregates (α-synuclein [4]): best disaggregators

NC(=O)c1ccc[n+]([C@@H]2O[C@H](COP(=O)([O-])OP(=O)(O)OC[C@H]3O[C@@H](n4cnc5c(N)ncnc54)[C@H](OP(=O)(O)O)[C@@H]3O)[C@@H](O)[C@H]2O)c1 [sodium beta-nicotinamide adenine dinucleotide phosphate]
lagtime for fibrillation (α-synuclein [3]): Significant increases in

O=C1c2ccccc2C(=O)c2c(O)c(O)cc(O)c21 [purpurin]
lagtime for fibrillation (α-synuclein [3]): Significant increases in

CCCCOc1ccc(C(=O)CCN2CCCCC2)cc1 [dyclonine hydrochloride]
lagtime for fibrillation (α-synuclein [3]): Significant increases in

O=c1c(O)c(-c2ccc(O)c(O)c2)oc2ccccc12 [3′,4′-dihydroxyflavonol]
disaggregation of α-synuclein aggregates (α-synuclein [4]): best disaggregators

O=c1cc(-c2ccc(O)c(O)c2)oc2cc(O)cc(O)c12 [luteolin]
disaggregation of α-synuclein aggregates (α-synuclein [4]): best disaggregators

Oc1cccc(O)c1O [pyrogallol]
disaggregation of α-synuclein aggregates (α-synuclein [4]): best disaggregators

N[C@@H](Cc1ccc(O)c(O)c1)C(=O)O [l-dopa, (−)-L-a-amino-b-(3,4-dihydroxybenzene)propanoic acid]
crossing of the blood-brain barrier [6]: does cross | solubility in water [7]: slightly soluble

O=c1cc(-c2cccc(O)c2O)oc2ccccc12 [2′,3′-dihydroxyflavone]
disaggregation of α-synuclein aggregates (α-synuclein [4]): best disaggregators

c1ccc(N=Nc2ccccc2)cc1 [azobenzene]
lagtime for fibrillation (α-synuclein [3]): Significant increases in

O=c1cc(-c2cc(O)c(O)c(O)c2)oc2cc(O)cc(O)c12 [5,7,3′,4′,5′-pentahydroxyflavone]
disaggregation of α-synuclein aggregates (α-synuclein [4]): best disaggregators

O=C(O[C@@H]1Cc2c(O)cc(O)cc2O[C@@H]1c1cc(O)c(O)c(O)c1)c1cc(O)c(O)c(O)c1 [epigallocatechin gallate]
disaggregation of α-synuclein aggregates (α-synuclein [4]): best disaggregators

O=c1cc(-c2cccc(O)c2O)oc2ccc(O)cc12 [6,2′,3′-trihydroxyflavone]
disaggregation of α-synuclein aggregates (α-synuclein [4]): best disaggregators

O=c1cc(-c2ccccc2)oc2cc(O)c(O)c(O)c12 [baicalein]
protein soluble after incubation, SDS PAGE of supernatant vs. total mixture (α-synuclein [2]): most protein still soluble | fibrils with atomic force microscopy (α-synuclein [8]): very few fibrils

Cn1nnnc1SCC1=C(C(=O)O)N2C(=O)[C@@H](NC(=O)[C@H](O)c3ccccc3)[C@H]2SC1 [cefamandole sodium]
lagtime for fibrillation (α-synuclein [3]): Significant increases in

O=C(Cc1cccs1)N[C@@H]1C(=O)N2C(C(=O)[O-])=C(C[n+]3ccccc3)CS[C@H]12 [cephaloridine]
lagtime for fibrillation (α-synuclein [3]): Significant increases in

C[C@@](Cc1ccc(O)c(O)c1)(NN)C(=O)O [carbidopa]
fibril formation by EM (α-synuclein [1]): negligible fibril formation | protein soluble after incubation, SDS PAGE of supernatant vs. total mixture (α-synuclein [2]): most protein still soluble | Thioflavin T signal / fibril formation by Thioflavin T fluorescence (α-synuclein [3]): negligible fibril formation

NCCc1ccc(O)c(O)c1 [dopamine]
crossing of the blood-brain barrier [6]: does not cross
